Experimental data taken from patent publication US20090005345A1, “Detoxification of Shellfish” (priority 2005, published 2009).

System: bivalves
Experiment: Feed test: detoxification of DSP-toxin containing bivalves by feeding in land-based vessels, DSP by HPLC
Format: in vivo
Settings: Test 5; additive given separately in addition to bioprotein; 7.2° C.
Description: Seawater from a depth of 45 metres in the Eidfjord, with a salinity of 33-34 per mille, was pumped up into a reservoir on land. The water was then passed into the test vessels. The bivalves were evenly distributed on the mesh/grating in a layer of about 10 cm in thickness. The vessel diameter is about 70 cm. In these small scale tests importance was given to ensuring that oxygen should not be a limiting factor. That is to say that there is sufficient flow-through of water to obtain approximate oxygen saturation in the outflow. The amount of water through each vessel was about 8 litres per minute.
Feeding was effected automatically batchwise throughout the day. That is to say that the daily consumption of the feed slurry according to Example 1 was filled into a tank once a day. The slurry runs from this tank to the bivalve vessel cascade via a valve. In our tests we chose to feed batchwise once an hour. Such portion feeding is important in order to obtain an even distribution to the whole bivalve population. The feed was added in the course of a few seconds. […]
In the case of all the tests, samples were taken immediately prior to the test start and after given time periods. […] The samples were analysed at the Norwegian College of Veterinary Medicine using HPLC (High Performance Liquid Chromatography).
The half-life for DSP was calculated using the following formula: […]

For O=C1O[C@H]([C@@H](O)CO)C(O)=C1O [Vitamin C], the “Effect on DSP half-life of additive used in addition to bioprotein” value was “no effect”.
